# In patent US20040191168A1, “Tumor cell killing by cell cycle checkpoint abrogation combined with Inhibition of the classical mitogen activated protein (map) kinase pathway” (priority 2000, published 2004):
# Tests used:
# Assay type in all cases: cell-based, human
# U937 cells [1] = assay: Soft agar clonogenic assay in U937 cells; conditions: agents alone, UCN-01 150 nM, PD184352 10 μM, 18 h
# Method: Clonogenic Assay and Cell Proliferation Assays. Colony formation after drug treatment was evaluated using a soft agar cloning assay as described previously (Blasina et al, 1999). Briefly, cells were washed three times with serum-free RPMI medium. Subsequently, 500 cells/well were mixed with RPMI medium con-taining 20% FBS and 0.3% agar and plated on 12-well plates (three wells/ condition). The plates were then transferred to a 37° C./5% CO2, fully humid-ified incubator. After 10 days of incubation, colonies, consisting of groups 5 of 50 cells, were scored using an Olympus Model CK inverted microscope, and colony formation for each condition was calculated in relation to values obtained for untreated control cells. For cell viability assays, CellTiter 96 AQueous One Solution (Promega, Madison, Wis.) was used according to the manufacturer's instructions, and the absorbance at 490 nm was recorded using a 96-well plate reader (Molecular Devices, Sunnyvale, Calif.).
# p42/44 MAPK = assay: Phospho-MAPK immunoblot in U937 cells; conditions: UCN-01 150 nM, MEK inhibitor coincubated with UCN-01, 2 h to 18 h
# Method: Immunoblot and Immunoprecipitation Analysis. Whole-cell pellets were lysed by sonication in 1× sample buffer [62.5 mM Tris base (pH6.8), 2% SDS, 50 mM DTT, 10% glycerol, 0.1% bromphenol blue, and […] each chymostatin, leupeptin, aprotinin, pepstatin, and soybean trypsin inhibitor] and boiled for 5 min. For analysis of phospho-proteins, 1 mM each Na vanadate and Na PPi was added to the sample buffer. Protein samples were collected from the supernatant after centrifugation of the samples at 12,800 3 g for 5 min, and protein was quantified using Coomassie Protein Assay Reagent (Pierce, Rock-ford, Ill.). Equal amounts of protein ([…]) were separated by SDS-PAGE and electrotransferred onto a nitrocellulose membrane. For blotting phospho-proteins, no SDS was included in the transfer buffer. The blots were blocked with 5% milk in PBS-Tween 20 (0.1%) at room temperature for 1 h and probed with the appropriate dilution of primary antibody overnight at 4° C. The blots were washed twice in PBS-Tween 20 for 15 min and then incubated with a 1:2000 dilution of horseradish peroxidase-conjugated secondary antibody (Kirkegaard & Perry, Gaithersburg, Md.) in 5% milk/PBS-Tween 20 at room temperature for 1 h. […] Protein samples were centrifuged at 12,800×g for 30 min and quantified. […]
# U937 cells [2] = assay: Cell cycle analysis (propidium iodide flow cytometry) in U937 cells; conditions: 18 h, UCN-01 150 nM, PD184352 10 μM, FIG. 3A
# Method: Cell Cycle Analysis and S-phase Content. Cells (2×10^6) were pelleted at 4° C., resuspended, fixed at 4° C. with 67% ethanol overnight, and treated on ice with a propidium iodide solution containing 3.8 mM Na citrate, 0.5 mg/ml RNase A (Sigma Chemical Co.), and 0.01 mg/ml propidium iodide (Sigma Chemical Co.) for 3 h. Cell cycle analysis was performed by flow cytometry using Verity Winlist software (Topsham, Me.). Incorporation of BrdUrd was monitored to evaluate S-phase content. For each condition, 2 3 10 6 cells (cell density 5 5 3 10 5 /ml) were incubated with […] BrdUrd for 30 min at 37° C. After washing twice with 1% BSA/PBS, the cells were resuspended in 70% ethanol and fixed for 30 min on ice. The BrdUrd-labeled cells were denatured and nuclei released by incubation with 2 N HCl/0.5% Triton X-100 for 30 min at room temperature. After centrifugation, the pellet was resuspended in 0.1 M […] (pH 8.5) to neutralize the acid. […] After washing once with 0.5% Tween 20/1% BSA/PBS, the cells were resuspended in PBS containing […] propiditun iodide and analyzed by flow cytometry. The percentage of S-phase cells was determined by measuring BrdUrd FITC-positive part in a dot plot of FL-3 (red fluorescence) against FL-1 (green fluorescence).
Compound,reduction of clonogenic survival (colony formation) (U937 cells [1]),phosphorylation (activation) of MAPK (p42/44 MAPK),cell cycle distribution (U937 cells [2])
O=C(NOCC1CC1)c1ccc(F)c(F)c1Nc1ccc(I)cc1Cl [PD184352],40%,essentially complete,little effect on the cell cycle distribution
"CN[C@@H]1C[C@H]2O[C@@](C)([C@@H]1OC)n1c3ccccc3c3c4c(c5c6ccccc6n2c5c31)C(=O)N[C@H]4O [UCN-01, 7-hydroxystaurosporine]",very modest effect,induced phosphorylation (activation) of MAPK,primarily depleted the G2 M population
